Laboratory results reported in ChEMBL document CHEMBL5512664, “Emerging and Re-emerging Warheads for Targeted Covalent Inhibitors: An Update” (J Med Chem, 2024).

Key:
[1] = Reactivity of SuTEx assessed as aryl-AG modifications by measuring half life by HLPC analysis; type: physicochemical
[2] = GSH reactivity in PBS buffer at pH 7.4 assessed as half life; type: ADME
[3] = target: T1, Replicase polyprotein 1ab (Severe acute respiratory syndrome coronavirus 2, UniProt P0DTD1); test: Inhibition of SARS-CoV-2 papain-like protease (PLpro) using fluorogenic peptide substrate by fluorescent assay
[4] = Reactivity rate at cyclic sulfonamide assessed as rate constant by CSA sulfenic-acid model; type: physicochemical
[5] = GSH reactivity in PBS buffer at pH 8 assessed as second-order reaction rate constants upto 200 uM by DTNB assay; type: ADME; details: pH 8, 200 µM
[6] = target: T2, Tyrosine-protein kinase ABL1 (Homo sapiens, UniProt P00519); test: Inhibition of wild type N-terminal His tagged ABL kinase (unknown origin) using fluorescence-labelled substrate by off-chip mobility shift assay
[7] = target: T2, Tyrosine-protein kinase ABL1; test: Inhibition of recombinant ABL kinase (unknown origin) assessed as inactivation rate constant (Kinact)
[8] = target: T2, Tyrosine-protein kinase ABL1; test: Inhibition of recombinant ABL kinase (unknown origin) assessed as inhibition constant
[9] = target: Bromodomain-containing protein 4 (Homo sapiens) (UniProt O60885); test: Binding affinity to his-tagged recombinant BRD4 BD1 (unknown origin) assessed as increase in thermal stability by measuring change in melting temperature after 4 hrs by cellular thermal shift assay
[10] = target: T1, Replicase polyprotein 1ab; test: Inhibition of SARS-CoV-2 cysteine protease main protease
[11] = Cytotoxicity against African green monkey Vero E6 cells; type: toxicity, cell-based, Vero C1008; details: chlorocebus sabaeus
[12] = Cysteine-reactive in peptide assessed as half life using fluorogenic monochlorobimane/zinc complex by measuring fluorescence intensity; type: ADME; details: cysteine-containing peptide
[13] = target: T3, Carbonic anhydrase 2 (Homo sapiens, UniProt P00918); test: Binding affinity to carbonic anhydrase II (unknown origin) fragment assessed as rate of protein modification by measuring inactivation rate constant (Kinact)
[14] = target: T3, Carbonic anhydrase 2; test: Rate of protein modification at carbonic anhydrase II (unknown origin) fragment assessed as inhibition constant
[15] = Chemical stability of the compound in pH 7.4 buffer assessed as half life; type: physicochemical
[16] = Reactivity of SuTEx assessed as aryl-LG modifications by measuring half life by HLPC analysis; type: physicochemical
[17] = target: E3 ubiquitin-protein ligase Mdm2 (Homo sapiens) (UniProt Q00987); test: Binding affinity to human HDM2 assessed as rate constant of covalent modification (Kinact)
[18] = target: E3 ubiquitin-protein ligase Mdm2 (Homo sapiens) (UniProt Q00987); test: Binding affinity to human HDM2 assessed as second-order rate constant (Kinact/Kd) ratio
[19] = target: NAD-dependent protein deacylase sirtuin-5, mitochondrial (Homo sapiens) (UniProt Q9NXA8); test: Inhibition of SIRT5 (unknown origin) assessed as inactivation rate constant (Kinact)
[20] = target: NAD-dependent protein deacylase sirtuin-5, mitochondrial (Homo sapiens) (UniProt Q9NXA8); test: Inhibition of SIRT5 (unknown origin) assessed as reaction rate Kinact/Ki ratio
[21] = species: Homo sapiens; test: Binding affinity to wild type Hsp90 (unknown origin) assessed as rate of modification half life
[22] = species: Homo sapiens; test: Inhibition of wild type Hsp90 (unknown origin) assessed as inactivation rate constant (Kinact)
[23] = Thiol reactivity of compound assessed as (Kinact/Ki) rate constant ratio; type: ADME
[24] = target: T4, Tyrosine-protein kinase BTK (Homo sapiens, UniProt Q06187); test: Binding affinity to BTK (unknown origin) assessed as inhibition constant
[25] = target: T4, Tyrosine-protein kinase BTK
Description: Binding affinity to BTK (unknown origin) assessed as inactivation rate constant (Kinact)

[26] = Toxicity in ip dosed mature male rabbit assessed as death; type: organism-based, Oryctolagus cuniculus; details: in vivo

T2 sequence (P00519 whole entry): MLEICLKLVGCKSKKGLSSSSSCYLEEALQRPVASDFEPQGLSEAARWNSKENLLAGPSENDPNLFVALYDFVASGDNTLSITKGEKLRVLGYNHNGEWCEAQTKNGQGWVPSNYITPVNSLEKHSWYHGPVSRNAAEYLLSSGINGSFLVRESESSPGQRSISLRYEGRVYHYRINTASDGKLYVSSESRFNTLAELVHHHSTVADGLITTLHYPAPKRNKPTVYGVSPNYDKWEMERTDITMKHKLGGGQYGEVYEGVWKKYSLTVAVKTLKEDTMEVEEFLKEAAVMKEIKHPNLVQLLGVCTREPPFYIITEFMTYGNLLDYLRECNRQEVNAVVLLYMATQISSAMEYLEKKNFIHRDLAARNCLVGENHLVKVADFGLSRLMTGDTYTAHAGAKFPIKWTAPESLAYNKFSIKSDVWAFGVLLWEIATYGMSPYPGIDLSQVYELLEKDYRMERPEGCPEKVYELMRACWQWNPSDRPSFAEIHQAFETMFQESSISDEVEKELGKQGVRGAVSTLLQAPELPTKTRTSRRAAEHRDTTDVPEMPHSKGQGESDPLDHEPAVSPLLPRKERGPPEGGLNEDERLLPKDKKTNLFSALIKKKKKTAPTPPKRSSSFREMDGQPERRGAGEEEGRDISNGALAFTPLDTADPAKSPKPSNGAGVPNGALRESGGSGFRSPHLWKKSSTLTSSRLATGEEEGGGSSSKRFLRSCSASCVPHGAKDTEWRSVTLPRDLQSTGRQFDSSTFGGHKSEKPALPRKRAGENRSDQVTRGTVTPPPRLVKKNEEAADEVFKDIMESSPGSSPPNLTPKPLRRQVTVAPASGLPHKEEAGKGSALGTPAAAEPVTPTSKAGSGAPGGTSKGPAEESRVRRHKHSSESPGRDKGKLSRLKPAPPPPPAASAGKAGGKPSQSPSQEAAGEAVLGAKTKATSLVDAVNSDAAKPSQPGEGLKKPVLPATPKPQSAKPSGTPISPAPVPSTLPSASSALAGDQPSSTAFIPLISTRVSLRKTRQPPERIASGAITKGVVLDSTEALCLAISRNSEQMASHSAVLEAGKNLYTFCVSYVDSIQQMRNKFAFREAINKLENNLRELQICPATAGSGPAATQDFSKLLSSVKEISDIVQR
Chain of E3 ubiquitin-protein ligase Mdm2 (Homo sapiens) (Q00987 whole entry, looked up): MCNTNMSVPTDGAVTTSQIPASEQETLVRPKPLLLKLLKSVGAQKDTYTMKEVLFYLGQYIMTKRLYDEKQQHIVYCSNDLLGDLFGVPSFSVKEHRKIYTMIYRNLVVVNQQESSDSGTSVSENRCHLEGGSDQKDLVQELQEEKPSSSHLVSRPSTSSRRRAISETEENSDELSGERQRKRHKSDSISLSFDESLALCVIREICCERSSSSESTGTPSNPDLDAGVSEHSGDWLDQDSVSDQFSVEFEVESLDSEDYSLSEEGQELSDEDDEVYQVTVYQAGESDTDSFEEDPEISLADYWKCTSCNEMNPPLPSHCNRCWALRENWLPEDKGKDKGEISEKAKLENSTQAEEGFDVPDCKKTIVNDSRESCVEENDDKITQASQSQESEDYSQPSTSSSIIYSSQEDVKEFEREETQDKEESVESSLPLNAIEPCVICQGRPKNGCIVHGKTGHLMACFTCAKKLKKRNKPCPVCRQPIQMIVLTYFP
Chain of NAD-dependent protein deacylase sirtuin-5, mitochondrial (Homo sapiens) (Q9NXA8 37-310 limits assumed): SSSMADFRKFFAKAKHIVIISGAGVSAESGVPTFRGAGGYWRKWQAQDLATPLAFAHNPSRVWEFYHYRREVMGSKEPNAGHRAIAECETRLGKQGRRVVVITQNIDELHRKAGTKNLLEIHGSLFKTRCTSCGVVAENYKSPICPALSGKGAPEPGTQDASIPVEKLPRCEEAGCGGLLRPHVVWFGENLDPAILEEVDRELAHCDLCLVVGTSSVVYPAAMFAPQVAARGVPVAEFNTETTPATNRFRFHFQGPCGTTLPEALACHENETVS
T4 sequence (Q06187 whole entry): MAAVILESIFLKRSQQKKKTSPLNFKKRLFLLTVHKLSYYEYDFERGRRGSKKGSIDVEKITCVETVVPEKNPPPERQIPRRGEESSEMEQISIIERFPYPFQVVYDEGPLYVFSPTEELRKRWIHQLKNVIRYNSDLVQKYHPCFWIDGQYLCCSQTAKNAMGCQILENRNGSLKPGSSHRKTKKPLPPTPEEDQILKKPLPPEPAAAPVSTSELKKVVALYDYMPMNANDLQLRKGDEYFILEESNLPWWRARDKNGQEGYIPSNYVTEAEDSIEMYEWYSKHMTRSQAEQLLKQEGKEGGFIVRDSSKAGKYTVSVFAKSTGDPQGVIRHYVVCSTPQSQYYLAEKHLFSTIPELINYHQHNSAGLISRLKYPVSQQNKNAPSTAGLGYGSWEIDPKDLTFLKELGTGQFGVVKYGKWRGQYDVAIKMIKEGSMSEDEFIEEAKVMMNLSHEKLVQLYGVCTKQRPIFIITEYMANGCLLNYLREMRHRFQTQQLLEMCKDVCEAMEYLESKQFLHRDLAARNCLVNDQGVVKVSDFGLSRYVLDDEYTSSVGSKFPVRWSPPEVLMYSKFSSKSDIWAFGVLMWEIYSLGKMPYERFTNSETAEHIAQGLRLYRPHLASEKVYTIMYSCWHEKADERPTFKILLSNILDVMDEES

SMILES: COc1ccc(-c2ncn(S(=O)(=O)c3cccnc3)n2)cc1
- half-life [1]: 0.0267 h

SMILES: C#CCOCCOCCOc1cccc(N2CCN(C(=O)C(F)F)CC2)c1
- half-life [2]: 129 h

SMILES: C=CCSc1nc2sc3c(c2c(=O)n1CC)CCc1ccccc1-3
- half-life [2]: 0.683 h
- IC50 [3]: 800 nM

SMILES: C#CCCCN1c2ccccc2C(=O)CS1(=O)=O
- K [4]: 1700 M⁻¹ s⁻¹

SMILES: C=CC(=O)NCc1ccccc1
- K [5]: 0.003 M⁻¹ s⁻¹

SMILES: C#CCN(C)C(=O)c1cncc(-c2cnc3[nH]cc(-c4cc(C=O)c(C#C)cc4OC)c3c2)c1
- IC50 [6]: 2.8 nM
- Kinact [7]: 5.54 10^-3/s
- Ki [8]: 3200 nM

SMILES: Cc1noc(C)c1-c1ccc(=O)n(Cc2ccc(C3CO3)cc2)c1 (stereo unspecified)
- ΔTm [9]: 22 °C

SMILES: C[C@@H](NC(=O)[C@H](c1cccnc1)N(C(=O)C(Br)(Br)Br)c1ccc(-c2ccccc2)cc1)c1ccccc1
- IC50 [10]: 80 nM
- CC50 [11]: 5480 nM

SMILES: NC(=O)C(F)Br (stereo unspecified)
- half-life [2]: 0.15 h

SMILES: O=C(COS(=O)(=O)Nc1ccc(Br)cc1)NCc1ccccc1
- K [5]: 0.003 M⁻¹ s⁻¹

SMILES: Nc1ncnc2c1ncn2[C@@H]1O[C@H](CN(CC[C@H](N)C(=O)O)S(=O)(=O)c2ccc(F)c([N+](=O)[O-])c2)[C@@H](O)[C@H]1O
- half-life [2]: < 0.0333 h

SMILES: C#CCCCC1CCC(=O)CC1=O (stereo unspecified)
- K [4]: 10 M⁻¹ s⁻¹

SMILES: NC(=O)C(F)Cl (stereo unspecified)
- half-life [2]: 17 h
- half-life [12]: 4.4 h

SMILES: NS(=O)(=O)c1ccc(CCNC(=O)Cc2ccc(S(=O)(=O)F)cc2)cc1
- Kinact [13]: 0.36 10^-5/s
- Ki [14]: < 5000 nM

SMILES: NS(=O)(=O)c1cccc(CNC(=O)c2ccc(S(=O)(=O)F)cc2)c1
- Kinact [13]: 12 10^-5/s
- Ki [14]: < 5000 nM

SMILES: CC#CC1=Nc2ccccc2C(C)(C)O1
- half-life [2]: 1.37 h
- half-life [15]: > 167 h

SMILES: C#CCCC(=O)C(SC[C@H](NC(=O)OCc1ccccc1)C(=O)N[C@H](C(=O)OC)C(C)C)[P+](c1ccccc1)(c1ccccc1)c1ccccc1 (stereo partly specified)
- K [4]: 15000 M⁻¹ s⁻¹

SMILES: O=S(=O)(c1ccc(F)cc1)n1cnc(-c2ccccc2)n1
- half-life [16]: 6.5 min
- Kinact [17]: 4.8 10^-4/s
- Ratio [18]: 8.4 10^2/M/s

SMILES: NS(=O)(=O)c1cccc(CNS(=O)(=O)c2ccc(S(=O)(=O)F)cc2)c1
- Kinact [13]: 9.6 10^-5/s
- Ki [14]: < 5000 nM

SMILES: O=C(COS(=O)(=O)Nc1ccccc1)NCc1ccccc1
- K [5]: 0.009 M⁻¹ s⁻¹

SMILES: C#CCNC(=O)c1ccc(S(=O)(=O)N[C@@H](CCCCNC(=O)c2cncc(OS(=O)(=O)F)c2)C(=O)N[C@@H](CCCNC(=N)N)C(=O)NC2CCC2)cc1
- Kinact [19]: 2.83 10^-4/s
- Ratio [20]: 2.9 M⁻¹ s⁻¹

SMILES: COc1ccc(-c2ncn(S(=O)(=O)c3ccc(OC)cc3)n2)cc1
- half-life [1]: 3.04 h

SMILES: CCSc1nc2sc3c(c2c(=O)n1CC)CCc1ccccc1-3
- half-life [2]: 0.683 h
- IC50 [3]: 4900 nM

SMILES: O=C(CCl)NCc1ccccc1
- K [5]: 0.08 M⁻¹ s⁻¹

SMILES: Cc1ccc(S(=O)(=O)OCC(=O)NCc2ccccc2)cc1
- K [5]: 0.161 M⁻¹ s⁻¹

SMILES: Nc1ncnc2c1nc(Sc1cc3c(cc1I)OCO3)n2C[C@@H]1CCCN(Cc2cccc(S(=O)(=O)F)c2)C1
- T1/2 [21]: 3.33 h
- Kinact [22]: 6.67 10^-5/s

SMILES: COc1cc(S(=O)(=O)F)ccc1-c1c[nH]c2ncc(-c3cncc(C(=O)N(C)C)c3)cc12
- IC50 [6]: 73 nM

SMILES: O=S(=O)(c1ccc(F)cc1)n1cnc(-c2ccc(Br)cc2)n1
- half-life [16]: 6.6 min

SMILES: Nc1ncnc2c1ncn2[C@@H]1O[C@H](CN(CC[C@H](N)C(=O)O)S(=O)(=O)c2ccc(Cl)c([N+](=O)[O-])c2)[C@@H](O)[C@H]1O
- half-life [2]: < 0.0333 h

SMILES: COc1ccc(-c2ncn(S(=O)(=O)C3CC3)n2)cc1
- half-life [1]: > 6 h

SMILES: CCCSc1nc2sc3c(c2c(=O)n1CC)CCc1ccccc1-3
- half-life [2]: 0.683 h

SMILES: CN(C(=O)C12CC1C2)c1ccccc1 (stereo unspecified)
- half-life [2]: 32.7 h

SMILES: CC(C)(C)OC(=O)/C=C/C(=O)N1CCC[C@@H](n2nc(-c3ccc(Oc4ccccc4)cc3)c3c(N)ncnc32)C1
- kinact/KI [23]: 35000 M⁻¹ s⁻¹
- Ki [24]: 221 nM
- Kinact [25]: 7.62 10^-3/s

SMILES: O=C(NCCCCCCCCNC(=O)C(Cl)Cl)C(Cl)Cl
- LD50 [26]: 10000 mg/kg

SMILES: C#CCOCCOCCOc1cccc(N2CCN(C(=O)CF)CC2)c1
- half-life [2]: > 167 h
